Experimental data: paper PMC7404270, “Biological Activities of Cyclic and Acyclic B-Type Laxaphycins in SH-SY5Y Human Neuroblastoma Cells” (Marine Drugs, 2020)

Columns and labels:
[1] = tested on: SH-SY5Y human neuroblastoma cells; experiment: LDH cytotoxicity assay (cell viability); assay type: cell-based; conditions: 24 h, 0.001–10 µM
Description: (§1) SH-SY5Y human neuroblastoma cell line was obtained from American Type Culture Collection (ATCC), number CRL2266. Cells were cultured in Dulbecco´s modified Eagle´s medium: Nutrient Mix F-12 (DMEM/F-12) with 10% fetal bovine serum (FBS), 1% glutamax, 100 U/mL penicillin and 100 µg/mL streptomycin. Cells were maintained at 37 °C in a humidified atmosphere of 5% CO2 and 95% air and dissociated weekly using 0.05% trypsin/EDTA. All the reagents were obtained from Thermo Fischer Scientific.
Cell viability was assessed with the LDH test. Cells were seeded in 96-well plates and exposed to different compound concentrations (0.001–10 µM). Cells were incubated with compounds at 37 °C in humidified 5% CO2/95% air atmosphere for 24 h. Quillaja bark saponin was used as cellular death control. Then, cell medium was collected and LDH release was evaluated. Pierce^TM LDH-Cytotoxicity Assay Kit (Thermo Fisher Scientific) was used for LDH determination. Absorbance was measured at 490 nm to determine LDH release to the medium. Experiments were carried out in triplicate at least three independent times.

[2] = tested on: SH-SY5Y human neuroblastoma cells; experiment: MTT cell metabolic activity assay; assay type: cell-based; conditions: 24 h, 0.001–10 µM
Description: as §1
The effect of laxaphycins on cell metabolic activity was evaluated by MTT (3-(4, 5-dimethyl thiazol-2-yl)-2, 5-diphenyl tetrazolium bromide) assay. SH-SY5Y cells were cultured in 96-well plates and treated with compounds at concentrations ranging from 0.001 to 10 µM for 24 h. Next, cells were rinsed three times and incubated for 1 h with MTT (500 µg/mL) dissolved in saline buffer. MTT excess was washed and cells were disaggregated with 5% sodium dodecyl sulfate. Absorbance of the colored formazan salt was measured at 595 nm in a spectrophotometer plate reader. Cell death control signal was subtracted from the other data.

[3] = tested on: SH-SY5Y human neuroblastoma cells; experiment: Mitochondrial membrane potential (TMRM dye); assay type: cell-based; conditions: 24 h, 0.001–10 µM
Description: ∆Ψm was evaluated with TMRM assay as previously described. SH-SY5Y cells were seeded in 96-well plates at 5 × 10^4 cells per well. After 24 h, cells were treated with compounds (0.001–10 µM) for 24 h. Next, cells were washed twice with saline solution and incubated with 1 µM TMRM for 30 min. Then human neuroblastoma cells were solubilized with 50% DMSO–50% water. Fluorescence values were measured at 535 nm excitation, 590 nm emission with a plate reader. At least three independent replicates were performed in triplicate.

[4] = tested on: SH-SY5Y human neuroblastoma cells; experiment: Reactive oxygen species levels (carboxy-H2DCFDA); assay type: cell-based; conditions: 24 h, 0.001–10 µM
Description: ROS production was assessed with the fluorescence dye carboxy-H2DCFDA (5-(and-6)-carboxy-2′,7′-dichlorodihydrofluorescein diacetate). SH-SY5Y cells were seeded in 96-well plates and allowed to grow for 24 h. Then, cells were treated with laxaphycins (0.001–10 µM) for 24 h and ROS levels were measured. SH-SY5Y cells were washed twice with serum-free medium and loaded with 20 µM carboxy-H2DCFDA. Next, the plate was incubated for 1 h at 37 °C. After this time, phosphate buffered saline (PBS) was added to each well during 30 min. The fluorescence was read at 495 nm excitation and 527 nm emission. Experiments were carried out at least three times.

[5] = tested on: SH-SY5Y human neuroblastoma cells; experiment: ATP levels (Luminescent ATP Detection Kit); assay type: cell-based; conditions: 0.001–10 µM; for ATP levels at 6 h, in words: 6 h incubation; for ATP levels at 24 h, in words: 24 h incubation
Description: ATP levels were determined with the Luminescent ATP Detection Kit (Abcam), following manufacturer´s instructions. Briefly, human neuroblastoma cells were cultured in 96-well plates at 5 × 10^4 cells per well. Cells were treated with compounds as described above during 6 and 24 h, Then, cells were lysed and 50 µL of substrate solution were added to each well. The plate was incubated for 5 min, and the luminescence was measured in a plate reader. Rot at 1 µM was used as positive control.

beclin 1 = experiment: Western blot, beclin 1 expression; assay type: cell-based, human; conditions: SH-SY5Y cells, 24 h; Rap 0.1 µM
Description: (§2) SH-SY5Y cells were seeded in 12-well plates and treated with laxaphycins for 24 h. Next, cells were washed with PBS and lysis buffer (50mM Tris HCl, 150 mM NaCl, 1mM EDTA and 1% Triton x-100, supplemented with a complete phosphatase/protease inhibitor cocktail) was added to each well. Cells were scrapped, sonicated and centrifuged at 13,000 rpm at 4 °C for 20 min.
(§3) In both cases, the supernatant was collected as the cytosolic fraction and quantified with the Bradford method. Samples containing 15 µg were used for electrophoresis, resolved in 4–20% sodium dodecyl sulphate polyacrylamide gel (Biorad, Madrid, Spain). Proteins were transferred to PVDF membranes (Merck Millipore) with a Trans-Blot® semi-dry transfer cell (Biorad). Membrane blocking and antibody incubation was performed in Snap i.d. system (Merck Millipore). Protein bands were detected with Supersignal West Pico Luminiscent Substrate and Supersignal West Femto Maximum Sensitivity Substrate (Thermo Fisher Scientific). Chemiluminiscence was determined with Diversity GeneSnap system and software (Syngene). LC3 II/I was detected with the primary antibody anti-LC3 II/I (1:1000, Abcam), the primary antibody anti-pmTOR (Ser2448) (1:1000, Merck Millipore) was used to recognize phospho-mTOR and the total levels of the kinase were determined with anti-mTOR antibody (1:10000, Abcam), beclin-1 was detected with anti-beclin-1 primary antibody (1:1000, Merck Millipore), p62 was quantified with anti-p62 antibody (1:1000, Merck Millipore), anti-phospho-p70 S6 kinase (Thr389) (1:1000, Merck Millipore) was used to detect phospho- p70 and the total levels were quantified using anti-p70 S6 kinase antibody (1:1000, Merck Millipore), anti-phospho-AMPK (Thr172) (1:500, Merck Millipore) was used to recognize the phosphorylated state of the kinase, and the total expression of the enzyme was detected with anti-AMPK antibody (1:500, Merck Millipore). Protein levels were normalized using β-Actin (1:20,000, Millipore). Baf A1 (0.001 µM), Rap (0.1 µM) and Comp C (1 µM) were used as controls for autophagic flux measurements. All the experiments were performed at least three times in duplicate.

AMPK = experiment: Western blot, AMPK activation (phosphorylated/total); assay type: cell-based, human; conditions: SH-SY5Y cells, 24 h; Comp C 1 µM
Description: as §2
(§4) In both cases, the supernatant was collected as the cytosolic fraction and quantified with the Bradford method. Samples containing 15 µg were used for electrophoresis, resolved in 4–20% sodium dodecyl sulphate polyacrylamide gel (Biorad, Madrid, Spain). Proteins were transferred to PVDF membranes (Merck Millipore) with a Trans-Blot® semi-dry transfer cell (Biorad). Membrane blocking and antibody incubation was performed in Snap i.d. system (Merck Millipore). Protein bands were detected with Supersignal West Pico Luminiscent Substrate and Supersignal West Femto Maximum Sensitivity Substrate (Thermo Fisher Scientific). Chemiluminiscence was determined with Diversity GeneSnap system and software (Syngene). […]

p70 S6 kinase = experiment: Western blot, p70 S6 kinase activation (phosphorylated/total); assay type: cell-based, human; conditions: SH-SY5Y cells, 24 h; one range given for the three compounds together
Description: as §2
as §3, with “All the experiments were performed at least three times in duplicate.” left out

LC3 = experiment: Western blot, LC3II/I ratio; assay type: cell-based, human; conditions: SH-SY5Y cells, 24 h; Baf A1 0.001 µM, Rap 0.1 µM
Description: as §2, §4

[6] = tested on: SH-SY5Y human neuroblastoma cells; experiment: Annexin V-FITC / propidium iodide flow cytometry; assay type: cell-based; conditions: 24 h, 1 at 0.3 µM, 2 at 0.15 µM, STS at 0.01 µM, percentage of total cells, mean ± SEM of three experiments
Description: The Annexin V-FITC Apoptosis Detection Kit was used to determine the cell death produced by compounds as previously described. SH-SY5Y cells were seeded in 12-well plates at 1 × 10^6 per well and incubated for 24 h with laxaphycins. Then, cells were washed with PBS and resuspended in Annexin binding buffer containing Annexin V-FITC and PI. Cells were incubated for 15 min at room temperature, resuspended in PBS and filtered. The fluorescence was determined by flow cytometry using the ImageStreamMKII (Amnis Corporation, Luminex Corp, Austin, TX, USA). 10,000 events were analyzed with IDEAS Application 6.0 software (Amnis Corporation, Luminex Corp, Austin, TX, USA). STS (Sigma Aldrich) at 0.01 µM was used as control in this assay.

caspase 3 = experiment: Caspase 3 activity in cell lysates (EnzCheck kit); assay type: cell-based, human; conditions: SH-SY5Y cells, 24 h; STS 0.01 µM; percentage of control cells, mean ± SEM
Description: The detection of caspase 3 activity was carried out with the EnzCheck® Caspase-3 Assay Kit. Neuroblastoma cells were cultured in 12-well plates at 1 × 10^6 cells per well and treated with compounds. After 24 h, cells were lysed and an aliquot was collected to quantify protein concentration by the Bradford method. Then, the assay was performed following manufacturer’s instructions. Briefly, 50 µL of each sample were mixed with equal volume of Z-DEVD-AMC substrate and incubated for 30 min at room temperature. Then, fluorescence at 342 nm excitation and 441 nm emission was measured. Caspase 3 activity data were corrected by protein concentration values. STS (0.01 µM) was used as positive control.

mTOR = experiment: Western blot, mTOR activation (phosphorylated/total); assay type: cell-based, human; conditions: SH-SY5Y cells, 24 h; Rap 0.1 µM
Description: as §2
as §3, with “All the experiments were performed at least three times in duplicate.” left out

## [des-(Ala^4-Hle^5)] acyclolaxaphycin B [compound 5]
[1]
  Cytotoxicity / cell viability (LDH test), in words: did not show effects on cell survival
[2]
  Cell metabolic activity (MTT), in words: increased cell metabolic activity
[3]
  Mitochondrial membrane potential (∆Ψm, TMRM), in words: depolarized the mitochondria
[4]
  ROS levels (carboxy-H2DCFDA), in words: reduced ROS levels at the highest concentrations
[5]
  ATP levels at 6 h, in words: levels were reduced by 5 after a 6 h incubation
  ATP levels at 24 h, in words: recovered at 24 h
Beclin 1
  Beclin 1 expression, in words: generated an increase in beclin1 expression

## acyclolaxaphycin B [compound 3]
[1]
  Cytotoxicity / cell viability (LDH test), in words: did not display cytotoxicity at any of the concentrations tested
[2]
  Cell metabolic activity (MTT), in words: significantly augmented cell metabolic activity at 0.1 and 1 µM
[3]
  Mitochondrial membrane potential (∆Ψm, TMRM), in words: produced a decrease in ∆Ψm
[4]
  ROS levels (carboxy-H2DCFDA), in words: reduced ROS and ATP levels at the highest concentrations
[5]
  ATP levels at 6 h, in words: reduction in ATP was observed at 6 h
  ATP levels at 24 h, in words: recovered at 24 h, reaching levels of control cells
Beclin 1
  Beclin 1 expression, in words: generated an increase in beclin1 expression

## c1cc(-c2cnn3cc(-c4ccc(OCCN5CCCCC5)cc4)cnc23)ccn1 [Comp C, compound C, reference compound]
AMPK
  AMPK activation (phospho/total), in words: inhibited kinase activity

## [des-(Ala^4-Hle^5)] acyclolaxaphycin B3 [compound 6]
[1]
  Cytotoxicity / cell viability (LDH test), in words: did not show effects on cell survival
[4]
  ROS levels (carboxy-H2DCFDA), in words: decreased ROS release
[5]
  ATP levels at 6 h, in words: reduced ATP content at 6 h
  ATP levels at 24 h, in words: recovering it after 24 h
AMPK
  AMPK activation (phospho/total), in words: the most active
p70 S6 kinase
  p70 S6 phosphorylation: 53.5%–78.6%
Beclin 1
  Beclin 1 expression, in words: generated an increase in beclin1 expression

## CO/C1=C\C(C)=C\[C@@H](C)[C@@H](O)[C@@H](C)C/C(C)=C/C=C/[C@H](OC)[C@@H]([C@@H](C)[C@@H](O)[C@H](C)[C@@]2(O)C[C@@H](O)[C@H](C)[C@@H](C(C)C)O2)OC1=O [Baf A1, Bafilomycin A1]
LC3
  LC3II/I ratio, in words: increased LC3II/I ratio

## CN[C@@H]1C[C@H]2O[C@@](C)([C@@H]1OC)n1c3ccccc3c3c4c(c5c6ccccc6n2c5c31)C(=O)NC4 [STS, staurosporine, reference compound]
[6]
  Apoptotic cells (early and late, Annexin V positive): 63.3% ± 3.2%
Caspase 3
  Caspase 3 activity: 157.8% ± 6%

## CO[C@H]1C[C@@H]2CC[C@@H](C)[C@@](O)(O2)C(=O)C(=O)N2CCCC[C@H]2C(=O)O[C@H]([C@H](C)C[C@@H]2CC[C@@H](O)[C@H](OC)C2)CC(=O)[C@H](C)/C=C(\C)[C@@H](O)[C@@H](OC)C(=O)[C@H](C)C[C@H](C)/C=C/C=C/C=C/1C [Rap, rapamycin, reference compound]
mTOR
  mTOR activation (phospho/total), in words: reduced mTOR activation
Beclin 1
  Beclin 1 expression, in words: augmented its expression
LC3
  LC3II/I ratio, in words: increased LC3II/I ratio

## acyclolaxaphycin B3 [compound 4]
[1]
  Cytotoxicity / cell viability (LDH test), in words: did not display cytotoxicity at any of the concentrations tested
[3]
  Mitochondrial membrane potential (∆Ψm, TMRM), in words: depolarizing the mitochondrial membrane at 10 µM
[4]
  ROS levels (carboxy-H2DCFDA), in words: diminishing ROS release
[5]
  ATP levels at 6 h, in words: diminishing ROS release and ATP levels at 6 h
p70 S6 kinase
  p70 S6 phosphorylation: 53.5%–78.6%
Beclin 1
  Beclin 1 expression, in words: generated an increase in beclin1 expression
